Measurements from patent US11286231B2, “Hydrogen-bonding compounds, compositions comprising the same, and methods of preparing and using the same” (Wake Forest University Health Sciences, priority 2016, dated 2022).

Experiments:
[1] = Oscillatory shear-stress sweep test, shear elastic modulus G′ of HyStem hydrogels; type: physicochemical
Procedure: (§1) To a 2 mL centrifuge tube, 200 μL of Heprasil® solution (1% w/v solution, thiolated HA component of HyStem kit), 200 μL of Gelin-S® solution (1% w/v, thiolated gelatin component of HyStem kit), 50 μL of Extralink® solution (2% w/v, polyethylene glycol diacrylate component of HyStem kit), and 50 μL of a modular catecholamine (C1.1) or amide […] solutions (0.25%-1.5% w/v, see Rheology section for specifics) were added and mixed by softly pipetting the solution up and down carefully to avoid creating bubbles. For control experiments the modular catecholamide or amine solutions were replaced with an equivalent volume of sterile deionized water. For rheology or cell culture studies, the reaction mixture was placed into wells of an appropriate size and exposed to UV radiation (˜222 nm) for 1-5 seconds.
A Discovery HR-2 Rheometer (TA Instruments, New Castle, Del.) with an 8 mm geometry was used to collect the rheological data. After reaction set-up, 200 μL of the reaction mixture was transferred into a 12 mm diameter×5 mm depth PDMS well. The PDMS well containing the reaction mixture was then exposed to UV radiation for 5 seconds at a distance of 1 cm. Photo-initiated polymerization and formation of a hydrogel occurred instantaneously. To ensure standard conditions across all experiments the geometry was lowered into the gels until a calibration normal force of 0.4N was achieved. Following, an oscillatory shear-stress sweep test (0.6-10.0 Pa, 1.0 Hz, 25° C.) was applied to hydrogels containing varying concentrations (0%, 1.0%, and 1.5% w/v) of modular amine compounds, C1.1 and C1.2. This experiment was repeated in triplicate for each condition. Average shear elastic modulus, G′, values were determined for each condition.
Shear-stress sweep tests (0.6-10.0 Pa, 1.0 Hz, 25° C.) were applied to hydrogels containing varying solution concentrations (0%, 1.0%, and 1.5% WAV) of modular amine compounds, C1.1/C1.2. Reported here are the average shear elastic modulus G′ values for n=3 runs for each condition (FIGS. 3 and 4). The reported uncertainties were calculated from standard deviations between n=3 averaged G′ values of each condition. In FIG. 3 we report the following G′ values: (2.136×10^3+/−3.988×10^2) Pa for the HyStem® control, (3.166×103+/−6.772×10^2) Pa for the HyStem®+1% w/v catecholamine, and (3.648×103+/8.047×102) Pa for the HyStem®+1.5% w/v catecholamine. […] Thus it was observed that when increasing the % w/v of the catecholamine (C1.1) solution used from 0% w/v, 1% w/v, 1.5% w/v, a proportional increase in G′ was observed, i.e., 1 equivalent of C1.1=1000 Pa increase in G′ and 1.5 equivalent=1500 Pa increase in the G′ of the hydrogel matrix.

[2] = Rheometer tensile strength T′ (adhesive force) test of HyStem hydrogels; type: physicochemical; conditions: for increase in T′ when concentration is doubled: 0.25% to 0.50% to 1.0% w/v; for fold increase in tensile strength T′: 1.0% w/v solution; for tensile strength T′: n=3
Procedure: as §1
A Discovery HR-2 Rheometer (TA Instruments) with an 8 mm geometry was used to collect the tensile strength, T′, data. The test was designed to quantify the axial force (Pa) exerted by the hydrogel on the geometry as measured by the rheometer as the geometry is slowly raised over 2000 μm at 25° C. The absolute value of the axial force (Pa) was then taken to be the adhesive force or tensile strength T′ (Pa) assigned to the hydrogel. To ensure standard conditions across all experiments the geometry was lowered into the gels until a calibration force of 0.4N was observed. Following, a rheometer tensile strength test was applied to the hydrogels at each of the respective conditions containing varying concentrations (0% w/v, 0.25% w/v, 0.50% w/v, and 1.0% w/v) of modular amine compounds, C1.0-C1.2. This experiment was repeated in triplicate for each condition.
While not wishing to be bound to any particular theory, our assumption here is that increased intermolecular interactions are occurring with the C1.2. In addition to the ortho-dihydroxyl groups offered by the catechol moiety, the amide moiety offers an extra hydrogen […] species, the carbonyl oxygen (C═O), for intermolecular interactions between the adjacent catecholamides. The catecholamides located on different HA chains or gelatin increase the ability for the hydrogel matrix to both interact with itself and other substrates through hydrogen bonding. Whereas the amine (C1.1) has a secondary carbon in the same position as the carbonyl functional group on the amide (C1.2), we postulate that the lack of this hydrogen bonding position yields a lower increase in G′ observed in hydrogel when comparing the two compounds. Again, to ensure standard conditions across all experiments, the geometry was lowered into the gels until a calibration force of 0.4N was detected. Following, a tensile strength test (25 μm/s, […], 25° C.) was applied to hydrogels containing varying concentrations (0%, 0.25%, […], and 1.0% w/v) of modular amine solutions, C1.1/C1.2. The reported values are the average T′ (Pa) values for n=3 runs at every condition and uncertainties were calculated from standard deviations between n=3 averaged T′ (Pa) for each condition. In FIG. 4, we report the following T′ (Pa) values for hydrogels containing C1.1: (1.10×10^2+/−2.91×10^1) Pa for Hystem® control, (2.90×10^2+/−1.23×10^2) Pa for Hystem®+0.25% w/v catecholamine, (4.25×10^2+/−1.01×10^2) Pa for Hystem® +0.50% w/v catecholamine, and (8.48×10^2+/−1.42×10^2) Pa for Hystem®+1.0% w/v catecholamine. […] In addition, we collected the following T′ values (Pa) for hydrogels containing C1.2: (1.09×10^2+3.64×10^1) Pa for Hystem® control, (3.33×10^2+/−6.16×10^1) Pa for Hystem®+0.25% w/v catecholamide, (4.12×10^2+/−6.39×10^1) Pa for Hystem®+0.50% w/v catecholamide, and (1.16×10^3+/−6.34×10^1) Pa for Hystem®+1.0% w/v catecholamide. […] Conclusively, we can say the increase in allotted tensile strength T′ (Pa) of the hydrogels when cross comparing compounds, C1.1 and C1.2, is due to the amide moiety having higher hydrogen bonding capacities.

[3] = Hystem + 0.25% w/v compound solution
[4] = Hystem + 0.50% w/v compound solution
[5] = Hystem + 1.0% w/v compound solution

C#CCNCc1ccc(O)c(O)c1 [Compound C1.1]
increase in G′ vs HyStem control ([1]; 1.0% w/v compound solution): ~1.029×10^3+/−3.280×10^1 Pa
increase in G′ over gels containing 1.0% w/v C1.1 ([1]; 1.5% w/v C1.1 solution): 477 pa
increase in G′ vs HyStem control ([1]; 1.5% w/v compound solution): 1.512×10^3+/−3.469×10^1 Pa
increase in T′ when concentration is doubled [2]: ~100%
fold increase in tensile strength T′ [2]: approximately 4 fold
tensile strength T′ [2, 3]: 2.90×10^2+/−1.23×10^2 Pa
increase in T′, 0.50% w/v to 1.0% w/v ([2]; Hystem + 0.50% w/v compared to Hystem + 1.0% w/v): 4.13×10^2+/−1.56×10^1 Pa
tensile strength T′ [2, 4]: 4.25×10^2+/−1.01×10^2 Pa
tensile strength T′ [2, 5]: 8.48×10^2+/−1.42×10^2 Pa

C#CCNC(=O)Cc1ccc(O)c(O)c1 [Compound C1.2]
higher increase in G′ over gels containing 1.0% w/v C1.1 solution ([1]; 1.0% w/v C1.2 solution): 788 Pa
increase in G′ vs HyStem control ([1]; 1.0% w/v compound solution): ~1.817×10^3+/−2.457×10^1 Pa
increase in G′ vs HyStem control ([1]; 1.5% w/v compound solution): 1.989×10^3+/−1.378×10^1 Pa
shear elastic modulus G′ ([1]; Hystem + 1.0% w/v compound solution, n=3): 3.953×10^3+/−1.160×10^2 Pa
increase in T′ when concentration is doubled [2]: 200%
fold increase in tensile strength T′ [2]: ~6 fold
tensile strength T′ [2, 3]: 3.33×10^2+/−6.16×10^1 Pa
tensile strength T′ [2, 4]: 4.12×10^2+/−6.39×10^1 Pa
tensile strength T′ [2, 5]: 1.16×10^3+/−6.34×10^1 Pa
